Test results from ChEMBL document CHEMBL1201862, “PubChem BioAssay data set” (2004).
Values joined by “and” are separate entries in the source; they are usually repeats but may differ in a detail not shown here. Equal entries are not always repeated.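 Five compound concentrations were applied to cells in 96-well plates for 48 hours; endpoints were derived by simple linear interpolation of the resulting dose-response curve. Abbreviation: GI50, concentration required for 50% inhibition of growth.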 Active and inactive are the calls of the source. No stated cut-off is given here; in the data, active = GI50 up to about 1.1 µM and inactive = higher.

How the values were obtained:
Test in all cases: DTP human tumour cell line panel, 48 h
SK-MEL-28 = system: SK-MEL-28
HCT-15 = system: HCT-15
UO-31 = system: UO-31
HT-29 = system: HT-29
NCI-H522 = system: NCI-H522
RXF 393 = system: RXF 393
OVCAR-4 = system: OVCAR-4
DU-145 = system: DU-145
SK-MEL-5 = system: SK-MEL-5
SR = system: SR
PC-3 = system: PC-3
CAKI-1 = system: CAKI-1
NCI/ADR-RES = system: NCI/ADR-RES
HCT-116 = system: HCT-116
Malme-3M = system: Malme-3M
HOP-62 = system: HOP-62
A549 = system: A549
U-251 = system: U-251
MDA-MB-231 = system: MDA-MB-231
NCI-H460 = system: NCI-H460

Compound | GI50 (SK-MEL-28) | GI50 (HCT-15) | GI50 (UO-31) | GI50 (HT-29) | GI50 (NCI-H522) | GI50 (RXF 393) | GI50 (OVCAR-4) | GI50 (DU-145) | GI50 (SK-MEL-5) | GI50 (SR) | GI50 (PC-3) | GI50 (CAKI-1) | GI50 (NCI/ADR-RES) | GI50 (HCT-116) | GI50 (Malme-3M) | GI50 (HOP-62) | GI50 (A549) | GI50 (U-251) | GI50 (MDA-MB-231) | GI50 (NCI-H460)
CCCSc1ccc2[nH]c(/N=C/c3ccccc3)cc2c1 | 23.7 µM (inactive) | 29 µM | 30.3 µM (inactive) | 22.3 µM (inactive) | 15.6 µM (inactive) | 16.4 µM (inactive) | 16.8 µM (inactive) | 30.5 µM (inactive) | 7.14 µM (inactive) | 3.51 µM (inactive) | 34.1 µM (inactive) | 19.4 µM (inactive) | 21.9 µM (inactive) | 17.7 µM (inactive) | 16.6 µM (inactive) |  |  |  |  | 
CCc1n[nH]c(=O)n1CCCCCCCCCCCCn1c(CC)n[nH]c1=O |  | 40.9 µM | 30.7 µM (inactive) | 32.7 µM (inactive) | 26.2 µM (inactive) | 37 µM (inactive) | 20.3 µM (inactive) |  | 16.1 µM (inactive) | 19.2 µM (inactive) | 27.5 µM (inactive) | 27.7 µM (inactive) | 28.6 µM (inactive) | 27 µM (inactive) | 25.9 µM (inactive) | 56.6 µM (inactive) | 27.9 µM (inactive) | 22 µM (inactive) | 28.1 µM (inactive) | 26.6 µM (inactive)
CCC(=O)Nc1ccc(NCC(=O)Nc2ccc(Cl)cc2)cc1 | 19.9 µM (inactive) | 14.4 µM | 22.3 µM (inactive) | 10.6 µM (inactive) | 15 µM (inactive) | 16.5 µM (inactive) | 14 µM (inactive) | 17.9 µM (inactive) | 15.8 µM (inactive) | 21.3 µM (inactive) | 15.1 µM (inactive) | 14.3 µM (inactive) | 33.2 µM (inactive) | 14.4 µM (inactive) | 19.7 µM (inactive) | 13.7 µM (inactive) | 19.7 µM (inactive) |  |  | 
CC1(C)CCC2(C(=O)OC3OC(CO)C(O)C(O)C3O)CCC3(C)C(=CCC4C5(C)CCC(OC6OC(CO)C(O)C(O)C6O)C(C)(C)C5CCC43C)C2C1 (stereo not drawn) | 6.93 µM (inactive) | > 25 µM | > 25 µM (inactive) | 9.46 µM (inactive) | 5.36 µM (inactive) | > 25 µM (inactive) | 11.8 µM (inactive) | > 25 µM (inactive) | 9.57 µM (inactive) | 3.89 µM (inactive) | 13.6 µM (inactive) | > 25 µM (inactive) |  | 8.61 µM (inactive) | 9.77 µM (inactive) | > 25 µM (inactive) | > 25 µM (inactive) | 4.49 µM (inactive) | 9.98 µM (inactive) | 6.59 µM (inactive)
Cc1cc(OC(=O)Nc2ccc(Cl)cc2)ccc1C(=S)Nc1ccccc1 | 71.1 µM (inactive) | 68.1 µM | 73.5 µM (inactive) | 24.5 µM (inactive) | 21.6 µM (inactive) |  | 24.8 µM (inactive) |  | 28 µM (inactive) | 64.3 µM (inactive) | > 100 µM (inactive) | 31.8 µM (inactive) | 48.1 µM (inactive) | 28.6 µM (inactive) | 53 µM (inactive) | > 100 µM (inactive) | 50.2 µM (inactive) | > 100 µM (inactive) |  | 18.5 µM (inactive)
Cc1ccccc1NC(=O)Cc1csc(N/N=C2\NC(=O)/C(=C/c3cccc([N+](=O)[O-])c3)S2)n1 | 19.1 µM (inactive) | 15.8 µM | 13.1 µM (inactive) | 34.7 µM (inactive) |  |  | 20.6 µM (inactive) | 36.1 µM (inactive) | 23.9 µM (inactive) |  | 16.6 µM (inactive) | 19.7 µM (inactive) | 31.3 µM (inactive) | 36.7 µM (inactive) |  | 22.9 µM (inactive) | 16.7 µM (inactive) | 21.5 µM (inactive) | 21.7 µM (inactive) | 15.6 µM (inactive)
CC1OC(OC2C(OC(=O)[C@]34CCC(C)(C)C[C@H]3C3=CC[C@@H]5[C@@]6(C)CC[C@H](OC7OC(C(=O)O)C(O)C(O)C7O)C(C)(C)[C@@H]6CC[C@@]5(C)[C@]3(C)C[C@H]4O)OCC(O)C2O)C(O)C(O)C1OC1OCC(O)C(O)C1O (stereo partly drawn) |  | 17.1 µM and 17.3 µM | 7.29 µM (inactive) and 11.6 µM (inactive) | 7.62 µM (inactive) and 5.18 µM (inactive) | 10.2 µM (inactive) and 6.21 µM (inactive) | 15.7 µM (inactive) and 18.5 µM (inactive) | 17.8 µM (inactive) | 15.3 µM (inactive) and 13.9 µM (inactive) | 16.8 µM (inactive) and 18.9 µM (inactive) | 7.55 µM (inactive) and 6.01 µM (inactive) |  | 12.7 µM (inactive) and 7.74 µM (inactive) |  | 14.1 µM (inactive) and 9.89 µM (inactive) | 14.2 µM (inactive) and 12 µM (inactive) | 17.7 µM (inactive) and 14.4 µM (inactive) |  | 10.4 µM (inactive) and 15.3 µM (inactive) |  | 22 µM (inactive) and 17 µM (inactive)
O=c1[nH]n(Cc2ccccc2Cl)c2ccc([N+](=O)[O-])cc12 | 55.8 µM (inactive) | 58.6 µM | 34.3 µM (inactive) | 72.9 µM (inactive) | 36.1 µM (inactive) | 23.3 µM (inactive) | 78.9 µM (inactive) | > 100 µM (inactive) | 12.6 µM (inactive) | 29.2 µM (inactive) |  | > 100 µM (inactive) | 28.1 µM (inactive) | 41.1 µM (inactive) | 47.3 µM (inactive) | 75.9 µM (inactive) | 37.8 µM (inactive) | 75.9 µM (inactive) | 39.4 µM (inactive) | 35.6 µM (inactive)
COC(=O)c1ccccc1/C=C1\Cc2c(C)c3c(c(C)c2C1=O)CCC3 | > 100 µM (inactive) | > 100 µM | > 100 µM (inactive) | > 100 µM (inactive) | > 100 µM (inactive) | > 100 µM (inactive) | 30.1 µM (inactive) | > 100 µM (inactive) | > 100 µM (inactive) | > 100 µM (inactive) | > 100 µM (inactive) | > 100 µM (inactive) | > 100 µM (inactive) | > 100 µM (inactive) | > 100 µM (inactive) | > 100 µM (inactive) | > 100 µM (inactive) | 37.8 µM (inactive) |  | > 100 µM (inactive)
CCOc1ccc(NC(=O)/C(=N\N)C(C(=O)OC)c2nc3ccc(Cl)cc3nc2O)cc1 (stereo not drawn) | > 100 µM (inactive) | > 100 µM | 72.3 µM (inactive) | > 100 µM (inactive) | > 100 µM (inactive) | > 100 µM (inactive) | > 100 µM (inactive) |  | > 100 µM (inactive) | 21.7 µM (inactive) | > 100 µM (inactive) | > 100 µM (inactive) | > 100 µM (inactive) | > 100 µM (inactive) | > 100 µM (inactive) | > 100 µM (inactive) | > 100 µM (inactive) | > 100 µM (inactive) | > 100 µM (inactive) | > 100 µM (inactive)
CC[C@H]1C=CCC[C@@]2(C[C@@H]3CC[C@H]4[C@@H](C(=O)OCCCCCCCCCCCCCCCC(=O)N(CCCN)C[C@@H](O)CCN)[C@@]5(CCC[C@@H](C)O5)NC(=[N+]34)N2)O1 | 1.36 µM (inactive) | > 10 µM | 9.18 µM (inactive) | 1.61 µM (inactive) | 1.66 µM (inactive) | 1.8 µM (inactive) | 3.4 µM (inactive) | 1.8 µM (inactive) | 1.47 µM (inactive) | 1.85 µM (inactive) | 1.62 µM (inactive) | 5.64 µM (inactive) | > 10 µM (inactive) | 1.61 µM (inactive) | 1.67 µM (inactive) | 1.69 µM (inactive) | 1.77 µM (inactive) | 1.64 µM (inactive) |  | 1.74 µM (inactive)
